System: HUVECs
Assay: Tubule formation assay on Matrigel
Assay type: cell-based, Human
Settings: 25 μM, 24 hrs, assessed under microscope
Description: FIG. 5: HUVECs were plated on Matrigel, then treated wither DMSO or Compound 1 for 24 hrs. Tubule formation was assessed by looking under microscope.
Human umbilical vascular endothelial cells (HUVECs) (50,000 cells/well) were plated on Matrigel. After 30 min, the cells were treated either with DMSO or 25 μM Compound 1. Tubule formation was assessed by observing plates under microscope. FIG. 6 is represents 24 hr time point for DMSO and Compound 1.

SMILES: N#Cc1ccc(Cn2cc(C=C3C(=O)NC(=O)NC3=O)c3ccccc32)cc1 [Compound 1, 4-((3-((2,4,6-trioxotetrahydropyrimidin-5(6H)-ylidene)methyl)-1H-indol-1-yl)meth-yl)benzonitrile]
- Tubule formation by HUVECs: inhibited the tubule formation

— patent publication US8304421B2, “Indole compounds and their use as radiation sensitizing agents and chemotherapeutic agents” (Vanderbilt University, priority 2008, dated 2012)
